Measured values published in article PMC13294250, “An effort to enhance the clinical translatability of caprate-based tablet formulations in gastric peptide delivery” (Drug Delivery and Translational Research, 2025).
Where two headings read alike, the source gives them in different places.

How the values were obtained:
[1] = Screening of the meglumine amount in acidic medium containing C10; assay type: physicochemical; conditions: 37 °C, pH meter
Method: In addition, it is an approved pharmaceutical excipient marketed in several oral dosage forms such as telmisartan, repaglinide and rosuvastatine tablets. To identify the most suitable meglumine amount for C10-based tablets, a systematic screening was conducted in 20 mL acidic medium (KCl 0.1 M/ HCl 0.025 M, 10 mL + 10 mL of MQ water) reflecting the composition of dog gastric fluid after dosing of water. The medium contained either 50, 100, 200, or 300 mg of C10 to account for different enhancer amounts, and the evolution of pH against added meglumine amount was monitored (Table 1). Since a final pH above 8.5 around the tablet in the stomach is desirable for C10 dissolution and to achieve the single-phased micellar system with high monomeric C10 availability, the corresponding meglumine amount needed to reach pH 8.5 was set as the lower limit for formulation development.
A stock solution of KCl 0.1 M/ HCl 0.025 M, pH = 1.6 was prepared. 10mL of this solution was added to 10 mL of MQ water in tubes containing either 50, 100, 200, or 300 mg of C10 granules. Each solution was gently stirred at 37 °C. Meglumine was added in amounts beyond the calculated neutralization point. pH was recorded using a pH meter PHM 200 (Mettler Toledo). Turbidity/clarity was visually assessed for records.

[2] = CAC and CMC determinations by dynamic light scattering; assay type: physicochemical; conditions: DLS at 25 °C
Method: Stock solutions of sodium caprate were made in the individual buffers. 10–100 mM phosphate buffer was used for most sample series, while 50 mM sodium borate was used for pH 9 [31]. In the case of meglumine a 20 mM Tris buffer pH 8.5 was used. Samples were prepared with and without 20 mg/ml meglumine. All samples were pH adjusted and filtered through 0.22 μm (Millipore 6830-0021). Dynamic light scattering (DLS) data was acquired at 25 °C by adding 20–25 µL of each sample in triplicates to a 384 well plate Corning® 3540 (Corning, NY, USA). The plate was centrifuged for 5 min at 1200 rpm before analysis to remove any air bubbles from the wells. […] A DynaPro™ Plate Reader and Dynamics™ software version 7 (Wyatt Technology Corp., Santa Barbara, CA, USA) was used to collect and analyze the data.

[3] = no reference given; cited from earlier work
Description: Meglumine was selected due to its capability to both raise the pH to the desired level and produce tablets with the required quality. […] In addition, it is an approved pharmaceutical excipient marketed in several oral dosage forms such as telmisartan, repaglinide and rosuvastatine tablets. To identify the most suitable meglumine amount for C10-based tablets, a systematic screening ...

[4] = sodium carbonate as pH modifier candidate in C10 tablets, oral
Method: On top of elevating the pH, the pH-modifying excipient needs to ensure manufacturability of tablets while being compatible with the API in the formulation. An array of alkaline agents capable of increasing the pH were screened (Figure S2) by addition of the pH modifier in 20 mL of acidic media (0.1 M HCl) with 0.1 M KCl, and 10 mg/mL of C10 at 37 °C, which is close to the physiological condition of experimental animals when C10 tablet formulation is dosed. The volume and concentration of HCl and KCl were selected to replicate the gastric in vivo conditions, whereas C10 was added to mimic the intrinsic buffer capacity of the PE present in the tablet.

[5] = cited from earlier work
Description: Given the negative impact of low gastric pH on both in vitro and in vivo performance of C10-based tablets, the use of a pH modifier was investigated to mitigate the acidity of the human stomach. Since C10 is an ionizable compound known to form different colloidal structures dependant on pH, selection of an appropriate pH modifier is paramount. The resulting pH should enable fast disintegration and dissolution of the formulation, whilst securing that the colloidal species formed facilitate the permeation enhancing effect needed for absorption of the macromolecule. Monomeric C10 is presumed to b ...

[6] = 50 mg C10 / 20 mL acidic medium (10 mL KCl 0.1 M/HCl 0.025 M pH 1.6 + 10 mL MQ water)
[7] = 200 mg C10 / 20 mL acidic medium (10 mL KCl 0.1 M/HCl 0.025 M pH 1.6 + 10 mL MQ water)
[8] = 300 mg C10 / 20 mL acidic medium (10 mL KCl 0.1 M/HCl 0.025 M pH 1.6 + 10 mL MQ water)

CNC[C@H](O)[C@@H](O)[C@H](O)[C@H](O)CO [meglumine, Meglumine]
Amount of meglumine (mg) to pH 8.5 [1, 6]: 15 mg | Amount of meglumine (mg) to pH 9.5 [1, 6]: 25 mg | Amount of meglumine (mg) to pH 9.5 ([1]; 100 mg C10 / 20 mL acidic medium (10 mL KCl 0.1 M/HCl 0.025 M pH 1.6 + 10 mL MQ water)): 60 mg | Amount of meglumine (mg) to pH 8.5 [1, 7]: 60 mg | Amount of meglumine (mg) to pH 9.5 [1, 7]: 100 mg | Amount of meglumine (mg) to pH 8.5 [1, 8]: 90 mg | Amount of meglumine (mg) to pH 9.5 [1, 8]: 125 mg | impact of meglumine on the CMC of C10 (in words) ([2]; 20 mM Tris buffer pH 8.5, with and without 20 mg/ml meglumine): did not show any impact | pKa [3]: 9.6

O=C([O-])[O-].[Na+].[Na+] [Sodium carbonate]
adverse events in dogs [4]: vomiting

CCCCCCCCCC(=O)[O-].[Na+] [Formulation C10, Sodium caprate]
critical aggregate concentration (CAC) of C10 vesicles ([2]; pH lower than approximately 8.5, phosphate buffer, triplicates): around 15 mM | critical micelle concentration (CMC) ([5]; pH 9.1): 81 mM | critical micelle concentration (CMC) ([5]; pH 11.8): 102 mM
